For assay [1], the target named is T1, human recombinant monoamine oxidase A (MAO A) (Homo sapiens, UniProt P21397).
T1 sequence (P21397 1-527): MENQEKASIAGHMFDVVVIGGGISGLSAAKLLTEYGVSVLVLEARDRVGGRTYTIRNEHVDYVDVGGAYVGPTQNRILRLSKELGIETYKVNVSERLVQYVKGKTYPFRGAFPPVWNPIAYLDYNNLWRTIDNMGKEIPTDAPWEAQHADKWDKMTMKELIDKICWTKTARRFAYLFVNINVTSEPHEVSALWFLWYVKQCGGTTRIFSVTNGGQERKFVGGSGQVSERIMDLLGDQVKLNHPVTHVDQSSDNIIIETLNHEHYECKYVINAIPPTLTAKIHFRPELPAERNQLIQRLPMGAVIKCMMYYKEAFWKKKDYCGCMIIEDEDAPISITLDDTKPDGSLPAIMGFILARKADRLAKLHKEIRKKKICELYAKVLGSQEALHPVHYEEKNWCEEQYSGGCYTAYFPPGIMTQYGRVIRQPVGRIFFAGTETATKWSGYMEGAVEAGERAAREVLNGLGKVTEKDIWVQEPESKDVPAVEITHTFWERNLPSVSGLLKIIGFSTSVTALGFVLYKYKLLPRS
Details: purchased Sigma Chemical Company M-7316; host or cells: baculovirus infected insect cells (microsomes). The conditions noted are these: read-out: published values MAO A; cited from earlier work.

Assay [2] has as its target T2, human recombinant monoamine oxidase B (MAO B) (Homo sapiens, UniProt P27338).
T2 construct: purchased Sigma Chemical Company M-7441; host or cells: baculovirus infected insect cells (microsomes)
T2 sequence (P27338 1-520): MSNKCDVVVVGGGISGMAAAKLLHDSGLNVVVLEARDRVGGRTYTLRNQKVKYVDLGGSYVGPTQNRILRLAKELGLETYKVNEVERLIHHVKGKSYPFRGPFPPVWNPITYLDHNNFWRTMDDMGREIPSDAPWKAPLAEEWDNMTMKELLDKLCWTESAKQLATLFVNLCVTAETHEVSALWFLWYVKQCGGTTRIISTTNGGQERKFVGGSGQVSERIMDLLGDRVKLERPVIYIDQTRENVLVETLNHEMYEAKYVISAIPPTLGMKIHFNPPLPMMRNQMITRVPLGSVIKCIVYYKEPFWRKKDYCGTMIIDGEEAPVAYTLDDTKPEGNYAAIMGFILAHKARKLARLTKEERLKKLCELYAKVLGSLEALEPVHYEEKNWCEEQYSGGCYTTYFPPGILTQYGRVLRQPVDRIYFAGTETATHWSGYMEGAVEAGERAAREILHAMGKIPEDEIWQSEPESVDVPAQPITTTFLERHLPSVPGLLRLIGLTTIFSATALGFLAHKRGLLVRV
The conditions noted are these: published values; cited from earlier work.

In assay [3] the test system is equine alcohol dehydrogenase. Description: Effect of inhibitors on the conversion of luciferol by equine alcohol dehydrogenase. It is filed as biochemical. As to conditions: luciferol + equine ADH + NAD+ with 10 µl inhibitor solution, 37°C, 30 minutes; duplicate reactions #1, #2 (controls 1023, 1087). On the procedure: Trichloroethanol solution: A 0.48 ml sample of 2,2,2, trichloroethanol (Aldrich T5480-5) was dissolved in water.
Duplicate reactions were assembled (see Table 19).
Reactions were initiated by addition of 1.5 µl of luciferol solution. Upon addition of the luciferol solution, the reactions were mixed and placed at 37°C.

The next assay has as its target T3, CYP2D6 (Homo sapiens, UniProt P10635).
T3 construct: purchased Discovery Labware (BD/Gentest); host or cells: insect cell expression system (membrane fractions)
The experiment in a line: Screening inhibitors of CYP2D6 with luciferin-6-methylether ethylene glycol ester (IC50). It is filed as biochemical. The conditions noted are these: substrate luciferin-6-methylether ethylene glycol ester.

The next assay deals with luciferase. Description: No-enzyme control: activity of luciferase towards the luciferin derivative (background luminescence). As to conditions: Table 32; microsomes from wild type baculovirus infected insect cells instead of FMO; CHES pH 9.5, 4 hours; duplicates.
The subject of assay [4] is human recombinant flavin-containing monooxygenase 1 (FMO 1). Description: Two-step luminescent FMO assay with luciferin derivative. The assay is classed as biochemical. The conditions noted are these: Table 32; CHES pH 9.5, NADPH regeneration, 4 hours room temperature; duplicates.
Assay [5] concerns human recombinant flavin-containing monooxygenase 3 (FMO 3). The description is as above. It is filed as biochemical. The conditions noted are these: Table 32; CHES pH 9.5, NADPH regeneration, 4 hours room temperature; duplicates.
For assay [6], the target named is T4, QuantiLum Luciferase (Photinus pyralis, UniProt P08659).
T4 construct: purchased Promega Corporation E170
T4 sequence (P08659 whole entry): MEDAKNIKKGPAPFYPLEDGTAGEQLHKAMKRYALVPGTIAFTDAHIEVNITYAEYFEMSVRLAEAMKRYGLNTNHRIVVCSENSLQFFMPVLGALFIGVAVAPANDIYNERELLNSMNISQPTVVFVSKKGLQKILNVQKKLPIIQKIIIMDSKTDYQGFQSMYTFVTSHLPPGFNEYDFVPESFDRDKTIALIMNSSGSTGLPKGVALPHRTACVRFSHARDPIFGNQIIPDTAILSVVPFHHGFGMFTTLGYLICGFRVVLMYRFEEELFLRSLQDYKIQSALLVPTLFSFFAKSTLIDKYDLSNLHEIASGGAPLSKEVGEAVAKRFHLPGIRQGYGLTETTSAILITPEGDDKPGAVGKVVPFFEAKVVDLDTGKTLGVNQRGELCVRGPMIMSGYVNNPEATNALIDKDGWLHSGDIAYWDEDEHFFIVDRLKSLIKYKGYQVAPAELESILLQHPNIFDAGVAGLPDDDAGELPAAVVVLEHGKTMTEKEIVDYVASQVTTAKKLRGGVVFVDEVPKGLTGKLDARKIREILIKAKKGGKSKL
Description: Emission spectra of luciferase reactions with luciferin, 5'-fluoroluciferin, 7'-fluoroluciferin. The assay is classed as biochemical, firefly. As to conditions: reagent pH 7.4. On the procedure:
All compounds except fluoroluciferin and ATP were purchased from Sigma Chemical. ATP was purchased from Amersham/Invitrogen.
Spectra were measured using 0.5s integration with 1 nm increments on a Spex Fluorolog.

Assay [7] concerns the target T4, QuantiLum Luciferase. Description: pH titration of firefly luciferase reaction with 7'-fluoroluciferin. It is filed as biochemical.
For assay [8], the target named is T4, QuantiLum Luciferase. Description: ATP titration of firefly luciferase reactions with luciferin and fluoroluciferins. It is filed as biochemical. As to conditions: result in words. The procedure: All compounds except 5'-fluoroluciferin and DTT were purchased from Sigma Chemical. To some of this reagent 5 mM ATP (Amersham/Invitrogen) was added, then serially diluted by half-logs to 0.05 mM. Reactions were initiated by adding equal volumes (0.1 ml) of reagent and DMEM medium (Gibco/Invitrogen) containing 0.1% Prionex® (Pentapharm) and 1.4 x 10-5 mg/ml QuantiLum™ Luciferase (Promega Corporation).
For ATP titrations for 7'-fluoroluciferin, reagent was created containing 200 mM HEPES, 200 mM PIPES, 1 mM CDTA, 0.5% Tergitol NP-9, 0.03% Benzyl dodecyldimethyl ammonium bromide, 30 mM thiourea, 10 mM magnesium sulfate, and 0.15 mM 7'-fluoroluciferin. This solution was separated into 3 parts and pH of the reagents were 7.4, 7.2 and 6.7. To some of this reagent, 10 mM ATP (Amersham/Invitrogen) was added. The ATP was serially diluted by quarter-logs from 10 mM to 0.32 mM.
Reactions were initiated by adding equal volumes (0.03 ml) of reagent and DMEM medium (Gibco/Invitrogen) containing 0.1% Prionex® (Pentapharm) and 1.4 x 10-5 mg/ml QuantiLum™ Luciferase (Promega Corporation).
Luminescence was measured for 0.5 seconds per well using Berthold Orion luminometer.

Values joined by “and” are separate entries in the source; they are usually repeats but may differ in a detail not shown here. Equal values may be shown once.

The values below come from patent EP1935986B1, “Luminogenic and fluorogenic compounds and methods to detect molecules or conditions” (priority 2005, dated 2006).

T3 sequence (P10635 whole entry): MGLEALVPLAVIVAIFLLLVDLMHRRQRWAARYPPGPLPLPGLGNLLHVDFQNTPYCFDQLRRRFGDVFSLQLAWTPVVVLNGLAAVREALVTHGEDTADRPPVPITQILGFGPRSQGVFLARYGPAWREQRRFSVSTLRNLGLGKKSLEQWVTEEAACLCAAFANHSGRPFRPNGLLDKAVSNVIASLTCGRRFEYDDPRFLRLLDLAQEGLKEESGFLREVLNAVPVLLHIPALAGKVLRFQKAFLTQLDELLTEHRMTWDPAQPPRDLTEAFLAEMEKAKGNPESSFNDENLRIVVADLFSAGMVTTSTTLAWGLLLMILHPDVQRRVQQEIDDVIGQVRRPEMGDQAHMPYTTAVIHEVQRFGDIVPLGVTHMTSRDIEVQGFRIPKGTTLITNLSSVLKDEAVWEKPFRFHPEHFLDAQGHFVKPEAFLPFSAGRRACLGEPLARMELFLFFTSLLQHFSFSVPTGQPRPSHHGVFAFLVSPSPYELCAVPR

Consider `NCCc1ccccc1` [phenethylamine], for which the IC50 in [1] is 78 to 280 µM; in [2] it was 2 to 150 µM.

For `OCC(Cl)(Cl)Cl` [trichloroethanol, 2,2,2, trichloroethanol], the “Relative Light Units” value in [3] is 524.8 and 342.1.

`N=C(N)N1CCc2ccccc2C1` [debrisoquine] had an IC50 on CYP2D6 of 77 µM.

Take `CCSCCOc1ccc2nc(C3=N[C@@H](C(=O)O)CS3)sc2c1` [FMO-2, 6-(2-ethylthioethoxy)-luciferin]: the RLUs control in the assay with luciferase was 8.7102 RLUs and 8.5489 RLUs. Besides, the “RLUs FMO 1” value in [4] is 11.778 RLUs and 12.006 RLUs. Besides, the “RLUs FMO 3” value in [5] is 12.194 RLUs and 10.425 RLUs.

For `O=C(O)[C@H]1CSC(c2nc3ccc(O)c(F)c3s2)=N1` [7'-fluoroluciferin], the “λmax of luminescence, red-shifted from regular luciferin” value at QuantiLum Luciferase [6] was “approximately 21 nm”. Further, the “pH optima for the firefly luciferase reaction” value at QuantiLum Luciferase [7] is given as about 7.5 pH. Moreover, at QuantiLum Luciferase [8], the “ATP requirement of the luciferase reaction compared with luciferin” value is on record as “requirement for ATP is much higher”.
